# Test results from patent US12024707B2, “Methods and compositions for modulating lncRNAs and methods of treatment based on lncRNA expression” (Washington University, priority 2020, dated 2024).
# Where a name gives a salt, the structure may show the parent alone.
# Test system: HT29 RAMS11 overexpressing cells
# Assay: High-throughput viability assay (resazurin), 119 FDA-approved anticancer drugs, RAMS11 overexpressing cells (Clone1, Clone2)
# Conditions: 72 h, vs empty vector control
# [1] = OE1 (RAMS11 overexpression clone 1), 0.1 uM drug
# [2] = OE1 (RAMS11 overexpression clone 1), 1 uM drug
# [3] = OE1 (RAMS11 overexpression clone 1), 10 uM drug
# [4] = OE2 (RAMS11 overexpression clone 2), 0.1 uM drug
# [5] = OE2 (RAMS11 overexpression clone 2), 1 uM drug
# [6] = OE2 (RAMS11 overexpression clone 2), 10 uM drug
# Description: The FDA-approved anticancer panel included multiple classes of drugs such as kinase inhibitors, alkylating agents, antineoplastic antibiotics, anthracycline antibiotics, and antineoplastic agents (topoisomerase inhibitors). The HT29 RAMS11 overexpressing and control cells were treated for 72 h to assess cellular viability upon drug treatment (FIG. 14a and TABLE 3). […] Due to 5-FU commonly used to treat mCRC, we further determined if RAMS11 expression altered drug sensitivity in treated cells.
# Drugs were diluted in DMSO to 1 mM and the well assignments were rearranged so drugs were confined to the inner 60 wells of 96-well plates. […] The next day serial diluted drug was added to pre-seeded plates in media containing 1% DMSO vehicle, using a Robbins Hydra 96 micro dispenser. Two 96-well plates of cells were used as vehicle controls. The plates were incubated for 3 days. Percent viability was scored by incubating cells for 3 h with resazurin sodium (0.023 mg/mL, Sigma R7017). The reaction was stopped by the addition of SDS (1% final concentration). Fluorescence Ex/Em 540/590 was read in a Biotek Synergy H1 plate reader (Winooski, VT). The fluorescence values for the vehicle plates were averaged and percent viability was determined by the formula: Percent viability=(average vehicle−value)/(average vehicle−average resazurin in media blank)×100. […] Assays were repeated more than three times.
Compound,Viability Fold Change [1],Viability Fold Change [2],Viability Fold Change [3],Viability Fold Change [4],Viability Fold Change [5],Viability Fold Change [6]
C[C@]12CC[C@H](O)CC1=CC[C@@H]1[C@@H]2CC[C@]2(C)C(c3cccnc3)=CC[C@@H]12 [Abiraterone],0.9503,0.9997,1.001,1.008,1.043,0.9879
CN(C)C/C=C/C(=O)Nc1cc2c(Nc3ccc(F)c(Cl)c3)ncnc2cc1O[C@H]1CCOC1 [Afatinib],1.034,1.121,1.39,1.147,1.156,1.398
Oc1ncnc2[nH]ncc12 [Allopurinol],0.8682,0.9042,0.776,0.9002,0.8635,0.8648
CN(C)c1nc(N(C)C)nc(N(C)C)n1 [Altretamine],0.949,0.9105,0.845,0.9299,0.9672,0.9171
NCCCNCCSP(=O)(O)O [Amifostine],0.9539,1.024,1.063,0.99,1.063,1.167
NCC(=O)CCC(=O)O [Aminolevulinic Acid],0.8803,0.9655,1.022,0.914,1.058,0.9613
CC(C)(C#N)c1cc(Cn2cncn2)cc(C(C)(C)C#N)c1 [Anastrozole],0.876,0.9957,0.9385,0.9749,1.001,0.9255
CNC(=O)c1ccccc1Sc1ccc2c(/C=C/c3ccccn3)n[nH]c2c1 [Axitinib],0.9514,0.9382,0.8636,0.911,1.101,0.8143
Nc1ncn([C@@H]2O[C@H](CO)[C@@H](O)[C@H]2O)c(=O)n1 [Azacitidine],1.05,1.098,0.9367,1.089,1.054,0.9049
O=C(/C=C/c1cccc(S(=O)(=O)Nc2ccccc2)c1)NO [Belinostat],0.9138,1.209,1.035,1.073,1.192,1.006
Cn1c(CCCC(=O)O)nc2cc(N(CCCl)CCCl)ccc21 [Bendamustine hydrochloride],0.8888,0.9725,0.935,1.01,0.9036,0.899
CC(C)C[C@H](NC(=O)[C@H](Cc1ccccc1)NC(=O)c1cnccn1)B(O)O [Bortezomib],0.6015,1.059,1.152,0.5035,0.8063,0.9968
COc1cc(Nc2c(C#N)cnc3cc(OCCCN4CCN(C)CC4)c(OC)cc23)c(Cl)cc1Cl [Bosutinib],1.048,1.013,1.477,1.022,1.04,1.608
CS(=O)(=O)OCCCCOS(C)(=O)=O [Busulfan],1.001,0.9365,0.8448,0.977,0.9369,0.871
CO[C@H]1C(=O)[C@]2(C)[C@@H](OC)C[C@H]3OC[C@@]3(OC(C)=O)[C@H]2[C@H](OC(=O)c2ccccc2)[C@]2(O)C[C@H](OC(=O)[C@H](O)[C@@H](NC(=O)OC(C)(C)C)c3ccccc3)C(C)=C1C2(C)C [Cabazitaxel],2.975,3.231,2.607,2.745,2.869,2.506
COc1cc2nccc(Oc3ccc(NC(=O)C4(C(=O)Nc5ccc(F)cc5)CC4)cc3)c2cc1OC [Cabozantinib],0.9713,1.012,0.995,0.9575,1.037,0.8731
CCCCCOC(=O)Nc1nc(=O)n([C@@H]2O[C@H](C)[C@@H](O)[C@H]2O)cc1F [Capecitabine],1.291,0.7939,0.9609,1.102,0.8093,1.166
N.N.O=C([O-])C1(C(=O)[O-])CCC1.[Pt+2] [Carboplatin],1.016,1.047,1.103,0.9697,1.074,0.9969
CC(C)C[C@H](NC(=O)[C@H](CCc1ccccc1)NC(=O)CN1CCOCC1)C(=O)N[C@@H](Cc1ccccc1)C(=O)N[C@@H](CC(C)C)C(=O)[C@@]1(C)CO1 [Carfilzomib],3.32,2.1,1.625,2.675,1.654,1.343
O=NN(CCCl)C(=O)NCCCl [Carmustine],1.007,0.9864,0.8696,1.005,1.079,1.04
Cc1ccc(-c2cc(C(F)(F)F)nn2-c2ccc(S(N)(=O)=O)cc2)cc1 [Celecoxib],0.8767,0.9228,0.9797,0.948,0.9628,0.9848
Cc1cc(Nc2ncc(Cl)c(Nc3ccccc3S(=O)(=O)C(C)C)n2)c(OC(C)C)cc1C1CCNCC1 [Ceritinib],0.9923,1.015,0.8304,1.009,1.068,0.8195
O=C(O)CCCc1ccc(N(CCCl)CCCl)cc1 [Chlorambucil],0.9531,1.164,1.064,0.9859,1.144,0.9173
N.N.[Cl][Pt][Cl] [Cisplatin],1.023,0.9277,0.9406,0.9583,0.9782,0.9961
Nc1nc(Cl)nc2c1ncn2[C@H]1C[C@H](O)[C@@H](CO)O1 [Cladribine],0.8736,1.321,1.949,0.9358,1.327,1.86
